Tests used:
BSA = assay: SPR selectivity, peptide vs interfering BSA; format: binding, bovine; settings: mixture containing 20 nM BSA and 20 nM HSA with hCG; 100 μM peptide
[1] = SPR binding of peptide aptamer to Au/Cys/carboxyl-GO chip; settings: carboxyl-GO with peptide aptamer, 1:1 Langmuir model
HSA = assay: SPR selectivity, peptide vs interfering HSA; format: binding, human; settings: mixture containing 20 nM BSA and 20 nM HSA with hCG; 100 μM peptide

## (N-)PPLRINRHILTR(-C) [peptide aptamer]
BSA
  interaction of peptide with interfering protein: no significant interaction between the two proteins and the peptide
[1]; flow rate 30 µL/min
  KA: 2.81e+07 M⁻¹
  KD (kd/ka): 0.36×10^–7 M
  association rate ka: 32.57 ×10[4] M^−1 s^−1
[1]; flow rate 60 µL/min
  association rate ka: 13.75 ×10[4] M^−1 s^−1
[1]; flow rate 90 µL/min
  association rate ka: 7.89 ×10[4] M^−1 s^−1
HSA
  interaction of peptide with interfering protein: no significant interaction between the two proteins and the peptide

— paper PMC6613200 (International Journal of Nanomedicine, 2019)
